Assay results from US8551405B2, “Electrophoretic interactive spectral methods and devices for the detection and/or characterization of biological particles” (The University of North Carolina at Chapel Hill, priority 2004, dated 2013).
“And” between values parts separate entries of the source, which are not always exact repeats. Equal values may be shown once. Read-outs that look alike come from different tables or passages of the source.

Assays:
activated platelets = assay: EQELS binding of proteins to thrombin-activated platelets; design: species or system human
Experimental: (§1) Fresh gel-filtered platelets were used in all experiments. Blood from healthy donors was collected in acid-citrate-dextrose and prostacyclin (5 μg/mL, PGI2, Sigma Chemical Co., St. Louis, Mo.). Platelet-rich-plasma was obtained by centrifugation of the anticoagulated blood at 150 g for 15 minutes. […] Gel-filtered platelets were obtained from the application of washed platelets to a Sepharose CL-2B column (Pharamica Inc., Uppsala, Sweden) equilibrated with calcium-free albumin-free Tyrode's buffer. Platelets for light scattering experiments were suspended in buffer containing 20 mM NaCl, 265 mM sucrose, 2 mM HEPES, pH 7.4 and activated with human α-thrombin (0.2 NIH units/mL). See Li, X., Gabriel, D. A. The physical exchange of factor VIII (FVIII) between von Willebrand factor and activated platelets and the effect of the FVIII B-domain on platelet binding (1997) Biochem. J. 36, 10760-10767. […] EQELS spectra of the gel filtered platelets gave a single homogeneous mobility indicating the lack of microparticles. No change is observed in the platelet mobility spectrum on the addition of rFVIIa over the concentration range where rFVIIa would be expected to bind to tissue factor if it was present, indicating an absence of TF in the preparation.
Electrophoretic quasi-elastic light scattering offers the ability to monitor changes in the surface of blood cells resulting from cell activation and ligand binding. Gabriel, D. A., Reece, N., Witte, J., and Muga, K. Electrophoretic light scattering studies on the interaction of fibrinogen with resting and activated human platelets (1993) Blood Coagul. Fibrinolysis 4, 397-403; Johnson, C., and Gabriel, D. A. (1995) Laser Light Scattering, Dover, N.Y. The electrophoretic mobility of activated platelets changes when exposed to a known ligand and that the mobility change is the result of ligand binding. […] Under these experimental conditions, resting gel-filtered platelets have an electrophoretic mobility of −0.9 (μ-cm)/(volt-sec) and activated platelets have a mobility of −0.65(μ-cm)/(volt-sec). Loading the platelet surface with a ligand, such as a FIX or FVIII, changes the platelet electrophoretic mobility. While the absolute mobility varies slightly from donor to donor, there is minimal variation in a given donor. The dependence of the change in the platelet electrophoretic mobility on the addition of FIX permits calculation of the binding constant for FIX to the activated platelet. It is not the magnitude of the change in the platelet electrophoretic mobility, μ, that determines the binding constant, but how the change in μ depends on the concentration of the ligand FIX. The effect of ligand binding on the platelet mobility varies with the ligand, and is dependent on the extent of ligand binding, the extent of surface modification caused by ligand binding, and on the net charge of the ligand itself.
EQELS measurements were made on a multi-angle quasi-elastic light scattering spectrometer (DELSA 440, Coulter Electronics, Inc., Hialeah, Fla.). See Li, X., Gabriel, D. A. Biochem. J. 36, 10760-10767 (1997); Johnson, C., and Gabriel, D. A. (1995) Laser Light Scattering, Dover, N.Y.
Activated platelets and activated FVIII were prepared by activation with 0.2 NIH U/mL human α-thrombin for 5 minutes. After activation, residual thrombin was inactivated by addition of 2.5 μM phenylalanyl prolinyl arginine chloromethyl ketone (PPACK, Calbiochem, La Jolla, Calif.). FIX, FIXa, FVIIIa, and rFVIIa were incubated with platelets for 10 minutes before EQELS measurements.
The binding coefficient (Kd) of the proteins to platelets was determined by fitting the data from the binding experiment to:
[formula] where, μ is the electrophoretic mobility, μ0 is the mobility in the absence of added protein, Δμ is the calculated maximal change in mobility at the saturating concentration of protein. This model assumes one class of binding sites for the specific protein ligand on the platelets. […]

[1] = tested on: activated platelet surface; conditions: literature, read-out: Kd, binding to activated platelet surface, cited from earlier work
resting platelets = assay: EQELS binding to resting platelets; design: species or system human; conditions: data not shown
Experimental: as §1, with “preparation. […]” for “preparation.”

[2] = molecular target: T1, platelet-bound zymogen FIX (Homo sapiens, UniProt P00740); assay: EQELS time and concentration dependence of zymogen FIX activation by rFVIIa on activated platelets; format: cell-based; conditions: FIX 10 nM
T1 construct: made in house
T1 sequence (P00740 29-461 limits assumed): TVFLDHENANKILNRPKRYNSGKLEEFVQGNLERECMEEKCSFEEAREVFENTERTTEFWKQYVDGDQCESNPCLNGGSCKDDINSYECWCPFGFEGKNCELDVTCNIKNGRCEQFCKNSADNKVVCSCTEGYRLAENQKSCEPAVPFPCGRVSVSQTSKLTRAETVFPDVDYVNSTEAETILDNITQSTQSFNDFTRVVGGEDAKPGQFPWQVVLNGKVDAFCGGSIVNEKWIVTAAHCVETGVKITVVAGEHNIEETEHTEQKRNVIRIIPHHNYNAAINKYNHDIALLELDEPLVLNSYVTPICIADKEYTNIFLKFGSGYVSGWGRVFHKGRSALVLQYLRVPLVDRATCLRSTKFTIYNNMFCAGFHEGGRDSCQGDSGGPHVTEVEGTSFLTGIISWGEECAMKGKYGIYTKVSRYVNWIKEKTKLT
Experimental: FIG. 11A is a graph of the time and concentration dependence of rFVIIa on the activation of zymogen FIX. Platelets were activated with thrombin followed by inhibition of thrombin with PPACK. The activated platelets were then loaded with rFVIIa (0.075 nM, 1 nM, or 10 nM) and monitored as a function of time. The mobility at the initial time (zero) is the mobility for platelets loaded with zymogen FIX. […] Changes in the platelet mobility result from FIX activation.
Zymogen FIX at varying concentrations was added to the thrombin activated platelets that in some experiments included FVIIIa followed by a 10 minute incubation period. After this incubation period, rFVIIa was added to activated platelets coated with zymogen FIX. The EQELS spectrum was then obtained.
A decrease in the […] of FIX was used to detect activation of zymogen FIX by rFVIIa.

FIX = molecular target: T2, FIX (Homo sapiens, UniProt P00740); assay: Functional (chromogenic) assay for activation of FIX on activated platelets; format: biochemical
T2 construct: made in house
T2 sequence (P00740 29-461 limits assumed): as above
Experimental: FIG. 12 is a graph illustrating the amount of FIX activated as a function of time and at different concentrations of rFVIIa (between 0 nM and 49 nM) for a chromogenic assay to show activation of FIX by rFVIIa in the absence of TF.
All assays were run in Tyrodes buffer with 2 mM CaCl2. Platelets were activated with 0.2 NIH units/ml of human α-thrombin for 10 minutes at 37° C. FVIII at 5 units/ml were included with the platelets and thrombin. Thrombin was neutralized with hirudin from a medium titrated against an α-thrombin standard. FVIIa at varying concentrations was added to the platelets for 10 minutes. Plasma concentrations of FIX at 80 nM were added and incubated for varied times. FIXa was assayed in a two stage assay. Platelets with activated FIX were incubated with plasma concentrations of FX for 5 minutes, then the amount of FXa was measured by adding plasma concentrations of prothrombin along with a […] (0.5 mM Perfachrome Th). […] Thrombin generation was measured as the change in the absorbance as the p-nitroanilide substrate was cleaved as a function of time. As expected, substrate cleavage fit a second order pattern and the rate of thrombin generation was determined from the first derivative of the absorbance versus time data.

[3] = rFVIIa concentration after therapeutic infusion; format: in vivo; conditions: therapeutic infusion for a bleeding diathesis, estimated
[4] = 4 mM Ca++, 3 nM FVIIIa, read-out: Binding Coefficient (Kd), interaction with activated platelets
[5] = 4 mM Ca++, No FVIIIa, read-out: Binding Coefficient (Kd), interaction with activated platelets

## Activated coagulation factor IX [FIXa]
Activated platelets; [4]
  Kd: 0.57 nM
Activated platelets; [5]
  Kd: 1.9 nM
Activated platelets; 4 mM calcium, 3 nM rFVIIIa, read-out: binding constant (Kd) to activated platelets
  Kd: 0.569 nM and 0.6 nM
Activated platelets; 4 mM calcium, no rFVIIIa, read-out: binding constant (Kd) to activated platelets
  Kd: 1.9 nM and 2 nM
Activated platelets; absence of calcium
  binding to activated platelets (change in platelet electrophoretic mobility): no binding
[1]; in the presence of rFVIIIa
  Kd: 0.6 nM
[1]; no rFVIIIa
  Kd: 2.5 nM
Resting platelets
  binding to resting platelets: do not bind

## Coagulation factor IX [FIX]
Activated platelets; 10 nM rFVIIa, 4 mM calcium, 3 nM rFVIIIa, read-out: binding coefficient (Kd) for zymogen FIX to activated platelets in presence of rFVIIa
  Kd: 0.84 nM
Activated platelets; 10 nM rFVIIa, 4 mM calcium, no rFVIIIa, 10 min incubation, read-out: binding coefficient (Kd) for zymogen FIX to activated platelets in presence of rFVIIa
  Kd: 1.62 nM and 1.6 nM
Activated platelets; [4]
  Kd: 5.8 nM
Activated platelets; [5]
  Kd: 7.9 nM
Activated platelets; FIX + FVIIa (10 nM), 4 mM Ca++, No FVIIIa, read-out: Binding Coefficient (Kd) for FIX in the presence of FVIIa, activated platelets
  Kd: 1.62 nM
Resting platelets
  binding to resting platelets: do not bind

## Recombinant activated coagulation factor Vila [rFVIIa]
[2]; 0.075 nM rFVIIa, approximately 30 minutes
  activation of zymogen FIX by rFVIIa (EQELS): minimal activation
[2]; 1 nM rFVIIa
  activation of zymogen FIX by rFVIIa (EQELS): further activation
[2]; 10 nM rFVIIa
  conversion of zymogen FIX to activated FIX by rFVIIa (EQELS): still more rapid rate
FIX; dependent on concentration of added rFVIIa, not shown in FIG. 12
  FXa and thrombin production: produced
FIX; rFVIIa 10, 20, 30, 40 nM, absence of TF
  activation of platelet-bound zymogen FIX (chromogenic assay): linear in time and directly proportional to the concentration of added rFVIIa
[3]
  concentration of rFVIIa after therapeutic infusion: approximately 30 nM
Activated platelets; concentration range where rFVIIa would be expected to bind tissue factor
  change in platelet mobility on addition of rFVIIa: no change
Activated platelets; conditions identical to FIXa binding experiment
  change in platelet surface charge: does not change
Activated platelets; in the presence of FIX
  rFVIIa concentration at which it binds to platelets in the presence of FIX: ≥ 10 nM
Activated platelets; rFVIIa 0 to 40 nM
  change in electrophoretic mobility of platelets on addition of rFVIIa: did not change
Activated platelets; rFVIIa at 10 nM
  binding of rFVIIa to activated platelets: does not bind
Activated platelets; rFVIIa greater than 100 nM
  binding of rFVIIa to activated platelets: can be detected
Activated platelets; rFVIIa less than 100 nM, even in the presence of calcium
  direct binding of rFVIIa to activated platelet surface: no direct binding
Activated platelets; rFVIIa range of 0.75 to 10 nM
  binding of rFVIIa to activated platelets: does not bind
Activated platelets; very high rFVIIa concentrations, absence of calcium (unpublished data), read-out: Kd of rFVIIa binding to platelets
  Kd: 250 nM
Activated platelets; very high rFVIIa concentrations, presence of calcium (unpublished data), read-out: Kd of rFVIIa binding to platelets
  Kd: 123 nM
